In patent US9138466B2, “Factor H for transplantation” (Baxter International Inc., priority 2013, dated 2015):
Several values for one entry are separate records, joined by “and”; a condition that tells them apart may be missing. Equal values may be shown once. Read-outs that look alike come from different tables or passages of the source. Marks after values point to notes of the source that are not given here.

Legend:
Assay type in all cases: in vivo
[1] = system: collagen antibody-induced arthritis in Balb C mice; experiment: Mouse CAIA, hind paw volume / footpad swelling (Example 4); design: Mean Disease Burden / Hind Limb Volume, Mean Diff. / Total Disease, Mean Diff.: unit not given here; conditions: for Total Footpad Thickness, Day of Study 8: day 8; for Total Footpad Thickness, Day of Study 11: day 11; for Total Footpad Thickness, Day of Study 12: day 12; for Total Footpad Thickness, Day of Study 13: day 13; for Total Footpad Thickness, Day of Study 15: day 15; for Total Footpad Thickness, Day of Study 19: day 19; for Total Footpad Thickness, Day of Study 22: day 22; for % Disease Suppression: footpad thickness AUC vs vehicle; for Total Disease Burden (AUC): footpad thickness days 8-22, in mL·day
[2] = system: collagen antibody-induced arthritis in Balb C mice; experiment: Mouse CAIA, histopathology of hind limbs (ankle, H & E) (Example 4)
[3] = Mouse CAIA, body weight and tolerability (Example 4)
Protocol: Balb C mice (n=10 per cohort) were used to determine the efficacy of Factor H (FH) during transplant rejection. The mice were treated with ArthritoMAb (anti-collagen) antibody cocktail (2 mg, i.v.) on day 1, followed 7 days later with an injection of LPS (50 μg, i.p.). On day 8, hind paw volumes were measured for each animal and distributed to various treatment groups.
Hind paw volumes were measured on day 8, 11, 12, 13, 15, 19 and 22 (endpoint). The age at start date was 7 to 9 weeks. Body weights were measured bi-weekly to the endpoint (Table 4). At the endpoint, tissue samples were processed for histology and submitted to a pathologist for independent analysis. Sampling 1 was performed at the endpoint. The hind limbs were preserved in 10% formalin. Sampling 2 was performed at the endpoint for group 4 animals. Blood was collected by terminal cardiac puncture. The blood was processed for anti-coagulant. The kidneys were additionally preserved in formalin and followed with 70% EtOH. Samples were scored for inflammation, pannus (granulation tissue), cartilage damage, bone resorption and exostosis (Table 5).

[4] = system: collagen antibody-induced arthritis in Balb C mice; experiment: Mouse CAIA, clinical score (Example 4); design: key to Mean Maximum Clinical Score: scored 0 to 60, sum of 4 limbs
[5] = Dunnett's Multiple Comparison Test, G1 vehicle vs treatment
[6] = Dunnett's Multiple Comparison Test, vehicle vs treatment
[7] = Dunn's Multiple Comparison Test, G1 vehicle vs treatment
[8] = ankle, group mean, score 0 = normal to 5 = severe
[9] = ankle, individual animal, score 0 = normal to 5 = severe
[10] = ankle, individual animal, score 0 = normal to 5 = severe, listed as Group 2

## C[C@@H]1C[C@H]2[C@@H]3CCC4=CC(=O)C=C[C@]4(C)[C@@]3(F)[C@@H](O)C[C@]2(C)[C@@]1(O)C(=O)CO [Dexamethasone]
[1]; AUC of combined footpad volume over baseline, days 8 to 22, group mean, vehicle 1.93
  Mean Disease Burden: −0.32***
[1]; [5]
  Total Disease, 95% CI of diff: 1.50 to 3.00
  Total Disease, Mean Diff.: 2.25
  Total Disease, Summary: *** (***= P < 0.001)
  Total Disease, q: 7.36
[1]; [6]
  Hind Limb Volume, 95% CI of diff: 0.09687 to 0.2080
  Hind Limb Volume, Mean Diff.: 0.1524
  Hind Limb Volume, Summary: *** (***= P < 0.001)
  Hind Limb Volume, q: 6.877
[1]; group mean, n 10
  Total Footpad Thickness, Day of Study 8: 0.35 mL
  Total Footpad Thickness, Day of Study 11: 0.32 mL
  Total Footpad Thickness, Day of Study 12: 0.34 mL
  Total Footpad Thickness, Day of Study 13: 0.33 mL
  Total Footpad Thickness, Day of Study 15: 0.31 mL
  Total Footpad Thickness, Day of Study 19: 0.34 mL
  Total Footpad Thickness, Day of Study 22: 0.31 mL
  % Disease Suppression: 116.49%
  Total Disease Burden (AUC): −0.32
[1]; individual animals (A# 1-10)
  Total Footpad Thickness, Day of Study 8: 0.42 mL and 0.39 mL (2×) and 0.37 mL and 0.35 mL and 0.34 mL and 0.33 mL and 0.31 mL (2×) and 0.3 mL
  Total Footpad Thickness, Day of Study 11: 0.30 mL and 0.34 mL and 0.32 mL (3×) and 0.3 mL (3×) and 0.35 mL and 0.31 mL
  Total Footpad Thickness, Day of Study 12: 0.34 mL (4×) and 0.28 mL and 0.35 mL and 0.32 mL and 0.31 mL and 0.39 mL and 0.37 mL
  Total Footpad Thickness, Day of Study 13: 0.31 mL (2×) and 0.3 mL (2×) and 0.36 mL and 0.38 mL (2×) and 0.33 mL and 0.35 mL and 0.29 mL
  Total Footpad Thickness, Day of Study 15: 0.37 mL and 0.33 mL and 0.29 mL (3×) and 0.38 mL and 0.26 mL and 0.3 mL (2×) and 0.27 mL
  Total Footpad Thickness, Day of Study 19: 0.35 mL (4×) and 0.28 mL and 0.3 mL and 0.38 mL and 0.37 mL and 0.32 mL and 0.0 mL
  Total Footpad Thickness, Day of Study 22: 0.39 mL and 0.42 mL and 0.3 mL and 0.32 mL and 0.29 mL (2×) and 0.35 mL (2×) and 0.31 mL and 0.25 mL
  % Disease Suppression: 139.7% and 129.0% and 162.5% and 125.0% and 114.5% and 102.9% and 104.7% and 87.3% and 96.1% and 101.3%
  Total Disease Burden (AUC): −0.77 and −0.51 and −1.21 and −0.54 and −0.28 and −0.06 and −0.09 and 0.25 and 0.10 and −0.02
[1]; mean combined foot pad volume, day 8 vs median day of maximal swelling, vehicle 0.21
  Maximum Δ Mean Volume: 0.03*** ml
[1]; percent decrease in total disease burden relative to vehicle
  % Disease Suppression (vs Vehicle): 116.5%
[2]
  Score From H & E, Bone Resorption: 0.8 ± 0.9
[2]; [7]
  Cartilage, Difference in rank sum: 9.25
  Composite, Difference in rank sum: 14.05
  Composite, Summary: * (*= P < 0.05)
  Exostosis, Difference in rank sum: 13.1
  Exostosis, Summary: ** (**= P < 0.01)
  Inflammation, Difference in rank sum: 14.95
  Inflammation, Summary: ** (**= P < 0.01)
  Pannus, Difference in rank sum: 11.4
[2]; ankle, group mean
  Composite Histopathaligy Score: 0.2 ± 0.1
[2]; [8]
  Score From H & E, Cartilage Damage: 0.9 ± 0.8
  Score From H & E, Inflammation: 0.3 ± 0.1
  Score From H & E, Pannus: 0.1 ± 0.1
  Score From H & E, Periosteal Exostotic Changes: 0.9 ± 0.8
[2]; [9]
  Score From H & E, Bone Resorption: 0
  Score From H & E, Cartilage Damage: 0
  Score From H & E, Periosteal Exostotic Changes: 0
[2]; [10]
  Score From H & E, Inflammation: 0 (9×) and 1
  Score From H & E, Pannus: 1 and 0 (9×)
[2]; ankle, individual animal, listed as Group 2
  Composite Histopathaligy Score: 3 and 0 (8×) and 1
[2]; histopathology summary, graded 1-5, vehicle 0.6 ± 0.3
  Bone Resorption: 0 ± 0^ns
[2]; histopathology summary, graded 1-5, vehicle 1.0 ± 0.3
  Pannus: 0.1 ± 0.1^ns
[2]; histopathology summary, graded 1-5, vehicle 2.0 ± 0.5
  Inflammation: 0.1 ± 0.1
[2]; histopathology summary, graded 1 to 5, vehicle 2.6 ± 0.5
  Exostosis: 0 ± 0
[2]; histopathology summary, vehicle 0.5 ± 0.2
  Cartilage Damage: 0 ± 0^ns
[2]; histopathology summary, vehicle 6.7 ± 1.7
  Composite Score: 0.2 ± 0.1
[3]; day 1, group mean n=10, before dosing start (day 8)
  Body Weight, Wt (g), Mean: 17.7 g
[3]; day 5, group mean n=10, before dosing start (day 8)
  Body Weight, Wt (g), Mean: 17.9 g
[3]; day 8, group mean n=10
  Body Weight, Wt (g), Mean: 16.3 g
[3]; day 12, group mean n=10
  Body Weight, Wt (g), Mean: 16.8 g
[3]; day 15, group mean n=10
  Body Weight, Wt (g), Mean: 16.7 g
[3]; day 19, group mean n=10
  Body Weight, Wt (g), Mean: 16.5 g
[3]; day 22, group mean n=10
  Body Weight, Wt (g), Mean: 16.5 g
[3]; lowest group mean body weight as % change from day 1, vehicle −8.0%
  Mean Body Weigh at Nadir: −7.7%
[4]; [7]
  Clinical Score, Difference in rank sum: 23.95
  Clinical Score, Summary: *** (***= P < 0.001)
[4]; day 8, group mean n=10
  Clinical score, Mean: 4.00
[4]; day 8, individual animal
  Clinical score: 5 (2×) and 10 (3×) and 0 (5×)
[4]; day 11, group mean n=10
  Clinical score, Mean: 0.10
[4]; day 11, individual animal
  Clinical score: 0 (9×) and 1
[4]; day 12, group mean n=10
  Clinical score, Mean: 5.70
[4]; day 12, individual animal
  Clinical score: 0 (3×) and 10 (4×) and 5 (2×) and 7
[4]; day 13, group mean n=10
  Clinical score, Mean: 6.00
[4]; day 13, individual animal
  Clinical score: 0 (4×) and 10 (6×)
[4]; day 15, group mean n=10
  Clinical score, Mean: 0.00
[4]; day 15, individual animal
  Clinical score: 0
[4]; day 19, group mean n=10
  Clinical score, Mean: 0.00
[4]; day 19, individual animal
  Clinical score: 0
[4]; day 22, group mean n=10
  Clinical score, Mean: 0.00
[4]; day 22, individual animal
  Clinical score: 0
[4]; group line 'Mean', day of study
  Day (of Max Clin Score), Mean: 12.00
[4]; group mean n=10
  Max Clin Score, Mean: 9.20
[4]; individual animal
  Max Clin Score: 5 and 10 (8×) and 7
[4]; individual animal, day of study
  Day (of Max Clin Score): 8 (4×) and 13 (2×) and 12 (4×)
[4]; scored from 0 to 60, sum of 4 limbs, vehicle 45.4
  Mean Maximum Clinical Score: 9.2***
